In general, IC50 refers to the concentration that gives 50% inhibition.

For the experiment, the target named is T1, hCB1 (Homo sapiens, UniProt P21554).
T1 construct: made in house; host or cells: Sf9 insect cells (baculovirus), P2 membranes
T1 sequence (P21554 whole entry): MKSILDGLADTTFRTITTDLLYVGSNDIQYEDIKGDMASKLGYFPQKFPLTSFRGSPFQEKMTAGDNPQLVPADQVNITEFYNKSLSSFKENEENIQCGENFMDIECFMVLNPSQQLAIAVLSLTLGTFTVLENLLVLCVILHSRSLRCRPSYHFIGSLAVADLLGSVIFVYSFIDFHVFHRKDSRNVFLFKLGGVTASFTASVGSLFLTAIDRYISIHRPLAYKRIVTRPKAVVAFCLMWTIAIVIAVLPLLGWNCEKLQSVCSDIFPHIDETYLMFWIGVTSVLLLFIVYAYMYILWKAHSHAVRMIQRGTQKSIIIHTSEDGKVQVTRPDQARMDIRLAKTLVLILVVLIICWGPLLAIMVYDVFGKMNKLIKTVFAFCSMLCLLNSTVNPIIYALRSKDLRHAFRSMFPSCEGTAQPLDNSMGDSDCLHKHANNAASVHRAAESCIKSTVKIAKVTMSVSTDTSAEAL
In words: Agonist-induced GTP binding (GTPγ35S) assay at CB1, Example 8. The class given is biochemical. The note with it: IC50 at CB1, determined as described in Example 8; read-out: IC50. Put shortly:
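Membranes from Sf9 cells co-expressing hCB1 and heterotrimeric G-protein (10 μg protein) in Tris pH 7.4 buffer with 5 μM GDP. Test compounds (10^−10–10^−5 M) competed against 1 nM CP55,940 with […] GTPγ35S, 60 min at room temperature. Filter-bound radioactivity by scintillation, expressed as percent above basal.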
As to `CCCOc1ccc(NC(=O)Nc2cccc(Cl)c2)cc1` [Compound 397, 1-(3-chlorophenyl)-3-(4-propoxyphenyl)urea], the IC50 is under 2000 nM.

For the compound `CCCOc1ccc(NC(=O)Nc2ccc(Cl)cc2)cc1` [Compound 398, 1-(4-chlorophenyl)-3-(4-propoxyphenyl)urea], the half-maximal inhibitory concentration (IC50) was under 2000 nM.

In the case of `CCc1cccc(NC(=O)Nc2cccc(OC(C)C)c2)c1` [Compound 399, 1-(3-ethylphenyl)-3-(3-isopropoxyphenyl)urea], the half-inhibitory concentration (IC50) was under 2000 nM.

As for `CC(C)Oc1cccc(NC(=O)Nc2cccc(Cl)c2)c1` [Compound 400, 1-(3-chlorophenyl)-3-(3-isopropoxyphenyl)urea], the IC50 was under 2000 nM.

Consider `CC(C)Oc1cccc(NC(=O)Nc2ccc(Cl)cc2)c1` [Compound 401, 1-(4-chlorophenyl)-3-(3-isopropoxyphenyl)urea], for which the IC50 is under 2000 nM.

On to `CCc1cccc(NC(=O)Nc2ccc(OC(C)C)cc2)c1` [Compound 402, 1-(3-ethylphenyl)-3-(4-isopropoxyphenyl)urea], for which the IC50 is under 2000 nM.

For `CCc1ccc(NC(=O)Nc2ccc(OC(C)C)cc2)cc1` [Compound 403, 1-(4-ethylphenyl)-3-(4-isopropoxyphenyl)urea], the half-maximal inhibitory concentration (IC50) is under 2000 nM.

On to `CC(C)Oc1ccc(NC(=O)Nc2cccc(Cl)c2)cc1` [Compound 404, 1-(3-chlorophenyl)-3-(4-isopropoxyphenyl)urea], for which the IC50 was under 2000 nM.

Turning to `CC(C)Oc1ccc(NC(=O)Nc2ccc(Cl)cc2)cc1` [Compound 405, 1-(4-chlorophenyl)-3-(4-isopropoxyphenyl)urea], the IC50 is under 2000 nM.

`CCc1cccc(NC(=O)Nc2cccc(OC(F)F)c2)c1` [Compound 406, 1-[3-(difluoromethoxy)phenyl]-3-(3-ethylphenyl)urea]: the IC50 was under 2000 nM.

Regarding `CCc1ccc(NC(=O)Nc2cccc(OC(F)F)c2)cc1` [Compound 407, 1-[3-(difluoromethoxy)phenyl]-3-(4-ethylphenyl)urea], the concentration for half-maximal inhibition (IC50) is under 2000 nM.

For the compound `COc1cccc(NC(=O)Nc2ccc(C(C)=O)cc2)c1` [Compound 408, 1-(4-acetylphenyl)-3-(3-methoxyphenyl)urea], the half-maximal inhibitory concentration (IC50) is under 2000 nM.

For `COc1ccc(NC(=O)Nc2cccc(C#N)c2)cc1` [Compound 409, 1-(3-cyanophenyl)-3-(4-methoxyphenyl)urea], the concentration for half-maximal inhibition (IC50) was under 2000 nM.

With `COc1ccc(NC(=O)Nc2ccc(C(C)=O)cc2)cc1` [Compound 410, 1-(4-acetylphenyl)-3-(4-methoxyphenyl)urea], the half-inhibitory concentration (IC50) is under 2000 nM.

Regarding `CCOc1ccc(NC(=O)Nc2ccc(C#N)cc2)cc1` [Compound 411, 1-(4-cyanophenyl)-3-(4-ethoxyphenyl)urea], the IC50 is under 2000 nM.

As for `CCOc1ccc(NC(=O)Nc2cccc(C(C)=O)c2)cc1` [Compound 412, 1-(3-acetylphenyl)-3-(4-ethoxyphenyl)urea], the IC50 was under 2000 nM.

For the compound `CCOc1ccc(NC(=O)Nc2ccc(C(C)=O)cc2)cc1` [Compound 413, 1-(4-acetylphenyl)-3-(4-ethoxyphenyl)urea], the IC50 was under 2000 nM.

As for `COCc1ccc(NC(=O)Nc2cccc(C(C)=O)c2)cc1` [Compound 414, 1-(3-acetylphenyl)-3-[4-(methoxymethyl)phenyl]urea], the 50% inhibitory concentration (IC50) was under 2000 nM.

As to `COCc1ccc(NC(=O)Nc2ccc(C(C)=O)cc2)cc1` [Compound 415, 1-(4-acetylphenyl)-3-[4-(methoxymethyl)phenyl]urea], the concentration for half-maximal inhibition (IC50) was under 2000 nM.

As for `CCCOc1ccc(NC(=O)Nc2cccc(C(C)=O)c2)cc1` [Compound 416, 1-(3-acetylphenyl)-3-(4-propoxyphenyl)urea], the half-inhibitory concentration (IC50) was under 2000 nM.

With `CCCOc1ccc(NC(=O)Nc2ccc(C(C)=O)cc2)cc1` [Compound 417, 1-(4-acetylphenyl)-3-(4-propoxyphenyl)urea], the half-maximal inhibitory concentration (IC50) is under 2000 nM.

As to `CC(C)Oc1cccc(NC(=O)Nc2cccc(C#N)c2)c1` [Compound 418, 1-(3-cyanophenyl)-3-(3-isopropoxyphenyl)urea], the IC50 is under 2000 nM.

Consider `CC(=O)c1cccc(NC(=O)Nc2cccc(OC(C)C)c2)c1` [Compound 419, 1-(3-acetylphenyl)-3-(3-isopropoxyphenyl)urea], for which the 50% inhibitory concentration (IC50) is under 2000 nM.

Turning to `CC(=O)c1ccc(NC(=O)Nc2cccc(OC(C)C)c2)cc1` [Compound 420, 1-(4-acetylphenyl)-3-(3-isopropoxyphenyl)urea], the IC50 was under 2000 nM.

With `CC(C)Oc1ccc(NC(=O)Nc2ccc(C#N)cc2)cc1` [Compound 421, 1-(4-cyanophenyl)-3-(4-isopropoxyphenyl)urea], the IC50 is under 2000 nM.

In the case of `CC(C)Oc1ccc(NC(=O)Nc2cccc(C#N)c2)cc1` [Compound 422, 1-(3-cyanophenyl)-3-(4-isopropoxyphenyl)urea], the concentration for half-maximal inhibition (IC50) is under 2000 nM.

Take `CC(=O)c1cccc(NC(=O)Nc2ccc(OC(C)C)cc2)c1` [Compound 423, 1-(3-acetylphenyl)-3-(4-isopropoxyphenyl)urea]: the IC50 is under 2000 nM.

On to `CC(=O)c1ccc(NC(=O)Nc2ccc(OC(C)C)cc2)cc1` [Compound 424, 1-(4-acetylphenyl)-3-(4-isopropoxyphenyl)urea], for which the half-maximal inhibitory concentration (IC50) was under 2000 nM.

For `CC(=O)c1cccc(NC(=O)Nc2cccc(OC(F)F)c2)c1` [Compound 425, 1-(3-acetylphenyl)-3-[3-(difluoromethoxy)phenyl]urea], the concentration for half-maximal inhibition (IC50) was under 2000 nM.

On to `CC(=O)c1ccc(NC(=O)Nc2cccc(OC(F)F)c2)cc1` [Compound 426, 1-(4-acetylphenyl)-3-[3-(difluoromethoxy)phenyl]urea], for which the half-maximal inhibitory concentration (IC50) was under 2000 nM.

Consider `CC(=O)c1ccc(NC(=O)Nc2ccc(OC(F)F)cc2)cc1` [Compound 427, 1-(4-acetylphenyl)-3-[4-(difluoromethoxy)phenyl]urea], for which the IC50 was under 2000 nM.

In the case of `Cc1ccc(NC(=O)Nc2ccc(F)cc2)cc1C` [Compound 428, 1-(3,4-dimethylphenyl)-3-(4-fluorophenyl)urea], the IC50 is under 2000 nM.

As for `Cc1ccc(NC(=O)Nc2cccc(F)c2)cc1F` [Compound 429, 1-(3-fluoro-4-methylphenyl)-3-(3-fluorophenyl)urea], the IC50 was under 2000 nM.

For the compound `Cc1ccc(NC(=O)Nc2ccc(F)cc2)cc1F` [Compound 430, 1-(3-fluoro-4-methylphenyl)-3-(4-fluorophenyl)urea], the concentration for half-maximal inhibition (IC50) is under 2000 nM.

As to `O=C(Nc1cccc(F)c1)Nc1ccc2c(c1)CCC2` [Compound 431, 1-(2,3-dihydro-1H-inden-5-yl)-3-(3-fluorophenyl)urea], the IC50 is under 2000 nM.

With `O=C(Nc1ccc(F)cc1)Nc1ccc2c(c1)CCC2` [Compound 432, 1-(2,3-dihydro-1H-inden-5-yl)-3-(4-fluorophenyl)urea], the IC50 is under 2000 nM.

Consider `Cc1ccc(NC(=O)Nc2cccc(F)c2)cc1Cl` [Compound 433, 1-(3-chloro-4-methylphenyl)-3-(3-fluorophenyl)urea], for which the IC50 was under 2000 nM.

Turning to `Cc1ccc(NC(=O)Nc2ccc(F)cc2)cc1Cl` [Compound 434, 1-(3-chloro-4-methylphenyl)-3-(4-fluorophenyl)urea], the IC50 was under 2000 nM.

On to `Cc1ccc(NC(=O)Nc2ccccc2)cc1Cl` [Compound 435, 1-(3-chloro-4-methylphenyl)-3-phenylurea], for which the IC50 was under 2000 nM.

On to `CCc1ccc(NC(=O)Nc2ccc(C)c(C)c2)cc1` [Compound 436, 1-(3,4-dimethylphenyl)-3-(4-ethylphenyl)urea], for which the half-inhibitory concentration (IC50) is under 2000 nM.

For `Cc1ccc(NC(=O)Nc2ccc(Cl)cc2)cc1C` [Compound 437, 1-(4-chlorophenyl)-3-(3,4-dimethylphenyl)urea], the half-maximal inhibitory concentration (IC50) was under 2000 nM.

Turning to `CCc1cccc(NC(=O)Nc2ccc(C)c(F)c2)c1` [Compound 438, 1-(3-ethylphenyl)-3-(3-fluoro-4-methylphenyl)urea], the IC50 is under 2000 nM.

As to `CCc1ccc(NC(=O)Nc2ccc(C)c(F)c2)cc1` [Compound 439, 1-(4-ethylphenyl)-3-(3-fluoro-4-methylphenyl)urea], the IC50 is under 2000 nM.

Take `CCc1ccc(NC(=O)Nc2ccc(F)c(C)c2)cc1` [Compound 440, 1-(4-ethylphenyl)-3-(4-fluoro-3-methylphenyl)urea]: the IC50 is under 2000 nM.

Consider `CCc1ccc(NC(=O)Nc2ccc(F)c(F)c2)cc1` [Compound 441, 1-(3,4-difluorophenyl)-3-(4-ethylphenyl)urea], for which the IC50 was under 2000 nM.

`CCc1ccc(NC(=O)Nc2ccc3c(c2)CCC3)cc1` [Compound 442, 1-(2,3-dihydro-1H-inden-5-yl)-3-(4-ethylphenyl)urea]: the IC50 was under 2000 nM.

Turning to `O=C(Nc1ccc(Cl)cc1)Nc1ccc2c(c1)CCC2` [Compound 443, 1-(4-chlorophenyl)-3-(2,3-dihydro-1H-inden-5-yl)urea], the concentration for half-maximal inhibition (IC50) was under 2000 nM.

Turning to `CCc1ccc(NC(=O)Nc2ccc(C)c(Cl)c2)cc1` [Compound 444, 1-(3-chloro-4-methylphenyl)-3-(4-ethylphenyl)urea], the IC50 was under 2000 nM.

As for `Cc1ccc(NC(=O)Nc2ccc(Cl)cc2)cc1Cl` [Compound 445, 1-(3-chloro-4-methylphenyl)-3-(4-chlorophenyl)urea], the IC50 is under 2000 nM.

With `CCc1ccc(NC(=O)Nc2ccc(Cl)c(C)c2)cc1` [Compound 446, 1-(4-chloro-3-methylphenyl)-3-(4-ethylphenyl)urea], the IC50 is under 2000 nM.

Turning to `Cc1ccc(NC(=O)Nc2cccc(C#N)c2)cc1C` [Compound 447, 1-(3-cyanophenyl)-3-(3,4-dimethylphenyl)urea], the 50% inhibitory concentration (IC50) was under 2000 nM.

As to `Cc1ccc(NC(=O)Nc2cccc(C#N)c2)cc1F` [Compound 448, 1-(3-cyanophenyl)-3-(3-fluoro-4-methylphenyl)urea], the IC50 is under 2000 nM.

For `CC(=O)c1cccc(NC(=O)Nc2ccc(C)c(F)c2)c1` [Compound 449, 1-(3-acetylphenyl)-3-(3-fluoro-4-methylphenyl)urea], the IC50 is under 2000 nM.
